# US8163693B2, “Urea-containing peptides as inhibitors of viral replication” (Achillion Pharmaceuticals, Inc., priority 2007, dated 2012)
# Read-outs that look alike come from different tables or passages of the source.
# Test system: Hepatitis C replicon in Huh-7 cells
# Test: HCV replicon assay (inhibition of HCV replicon replication, NPT ELISA readout)
# Format: cell-based
# Details: Hepatitis C virus, 72 h, Huh-7 HCV replicon-containing cells, three days incubation
# Description: Compounds claimed herein are tested for the ability to inhibit viral replication of the Hepatitis C replicon in cultured cells in which the HCV replicon construct has been incorporated. The HCV replicon system was described by Bartenschlager, et. al (Science, 285, pp. 110-113 (1999)). The replicon system is predictive of in vivo anti-HCV activity; compounds that are active in humans uniformly evidence activity in the replicon assay.
# In this assay HCV replicon containing cells are treated with different concentrations of the test compound to ascertain the ability of the test compound to suppress replication of the HCV replicon. As a positive control, HCV replicon-containing cells are treated with different concentrations of interferon alpha, a known inhibitor of HCV replication. The replicon assay system includes Neomycin Phosphotransferase (NPT) as a component of the replicon itself in order to detect the transcription of replicon gene products in the host cell. Cells in which the HCV replicon is actively replicating have high levels of NPT; the level of NPT is proportional to HCV replication. […] The NPT level of each sample is measured using a captured ELISA.
# A protocol for testing compounds for the ability to inhibit viral replication of the Hepatitis C replicon cultured cells in which the replicon construct has been incorporated, follows.
# The HCV replicon contains, 5′-3′, the HCV-IRES, the neomycin phosphotransferase (neo) gene, the IRES of encephalomyocarditis virus, which directs translation of HCV sequences NS3 to NS5B, and the 3′-NTR. The sequence of the HCV replicon has been deposited in GenBank (Accession no. AJ242652).
# The replicon is transfected into Huh-7 cells using standard methods such as electroporation.
# The equipment and materials include, but are not limited to, Huh-7 HCV replicon-containing cells, maintenance media (DMEM (Dulbecco's modified Eagle media) supplemented with 10% FBS, L-glutamine, non-essential amino acids, penicillin (100 units/ml), streptomycin (100 micrograms/ml), and 500 micrograms/ml of Geneticin (G418), screening media (DMEM supplemented with 10% FBS, L-glutamine, non-essential amino acids, penicillin (100 units/ml) and streptomycin (100 micrograms/ml)), 96 well tissue culture plates (flat bottom), 96 well plates (U bottom for drug dilution), Interferon alpha for positive control, fixation reagent (such as methanol: acetone), primary antibody (rabbit anti-NPTII), secondary antibody: Eu-N1 1, and enhancement solution.
# The cells are then seeded onto 96-well plates at a density of 6000-7500 cells/100 microliters/ well (6-7.5×10^5 cells/10 ml/plate). The plates are then incubated at 37° C. in a 5% CO2 incubator.
# HCV replicon-containing cells are rinsed with once PBS once; 2 mls of trypsin are then added. Cells are incubated at 37° C. in a 5% CO2 incubator for 3-5 minutes. 10 mls of complete medium is added to stop the reaction. Cells are blown gently, put into a 15 ml tube, and spun at 1200 rpm for four minutes. The trypsin/medium solution is removed and 5 mls of medium (500 ml DMEM (high glucose)) from BRL catalog #12430-054; 50 mls 10% FBS, 5% Geneticin G418 (50 mg/ml, BRL catalog #10131-035), 5 ml MEM non-essential amino acids (100× BRL #11140-050) and 5 ml pen-strep (BRL #15140-148) is added. The cells and media are mixed carefully
# Cells are plated with screening medium (500 ml DMEM (BRL #21063-029), 50 ml FBS (BRL #10082-147) and 5 ml MEM non-essential amino acid (BRL #11140-050) at 6000-7500 fcells/100 μl/well of 96 well plate (6-7.5×10^5 cells/10 ml/plate). Plates are placed into 37° C. 5% CO2 incubator overnight.
# The following morning, drugs (test compounds or interferon alpha) are diluted in 96 well U bottom plates with media or DMSO/media, depending on the final concentration chosen for screening. Generally for 6 concentrations of each test compounds ranging from 10 micromolar to 0.03 micromolar are applied. […]
# [1] = read-out: EC50 in HCV replicon assay
# [2] = read-out: Activity (EC50 class in an HCV replicon assay)
compound,measurement,setting,value
"CCCC(NC(=O)N1C[C@@H](OC(=O)N2CCc3ccccc3C2)C[C@H]1C(=O)N[C@H](C(=O)N[C@H](C(=O)OC)C1CCCCC1)C(C)(C)C)C(=O)C(=O)NC1CC1 (stereo partly drawn) [Compound 11, (3S,5S)-5-((S)-1-((S)-1-Cyclohexyl-2-Methoxy-2-Oxoethylamino)-3,3-Dimethyl-1-Oxobutan-2-Ylcarbamoyl)-1-(1-(Cyclopropylamino)-1,2-Dioxohexan-3-Ylcarbamoyl)Pyrrolidin-3-yl 3,4-Dihydroisoquinoline-2(1H)-Carboxylate]",EC50,[1],≤ 10 µM
"CCCC(NC(=O)N1C[C@@H](OC(=O)N2CCc3ccccc3C2)C[C@H]1C(=O)N[C@H](C(=O)N[C@H](C(=O)NC)C1CCCCC1)C(C)(C)C)C(=O)C(=O)NC1CC1 (stereo partly drawn) [Compound 16, (3S,5S)-5-((S)-1-((S)-1-Cyclohexyl-2-(Methylamino)-2-Oxoethylamino)-3,3-Dimethyl-1-Oxobutan-2-Ylcarbamoyl)-1-(1-(Cyclopropylamino)-1,2-Dioxohexan-3-Ylcarbamoyl)Pyrrolidin-3-Yl 3,4Dihydroisoquinoline-2(1H)-Carboxylate]",EC50,[1],< 50 µM
"C=CC1CC1(NC(=O)N1C[C@@H](OC(=O)N2CCc3ccccc3C2)C[C@H]1C(=O)N[C@H](C(=O)N[C@H](C(=O)NC)C1CCCCC1)C(C)(C)C)C(=O)O (stereo partly drawn) [Compound 33, 1-((2S,4S)-2-((S)-1-((S)-1-Cyclohexyl-2-(Methylamino)-2-Oxoethylamino)-3,3-Dimethyl-1-Oxobutan-2-Ylcarbamoyl)-4-(1,2,3,4-Tetrahydroisoquinoline-2-Carbonyloxy)Pyrrolidine-1-Carboxamido)-2-Vinylcyclopropanecarboxylic Acid]",EC50,[1],< 50 µM
"C=CC1CC1(NC(=O)N1C[C@@H](OC(=O)N2CCc3ccccc3C2)C[C@@H]1C(=O)N[C@H](C(=O)N[C@H](C(=O)NC)C(CC)CC)C(C)(C)C)C(=O)O (stereo partly drawn) [Compound 38, 1-((2R,4S)-2-((S)-1-((S)-3-Ethyl-1-(Methylamino)-1-Oxopentan-2-Ylamino)-3,3-Dimethyl-1-Oxobutan-2-Ylcarbamoyl)-4-(1,2,3,4-Tetrahydroisoquinoline-2-Carbonyloxy)Pyrrolidine-1-Carboxamido)-2-Vinylcyclopropanecarboxylic Acid]",EC50,[1],< 50 µM
CNC(=O)[C@@H](NC(=O)[C@@H]1CCCCC/C=C\CC(C(=O)C(=O)NC2CC2)NC(=O)N2C[C@@H](OC(=O)N3CCc4ccccc4C3)C[C@@H]2C(=O)N1)C1CCCCC1 (some centres unmarked) [Compound 39],EC50,[1],≤ 10 µM
CNC(=O)[C@@H](NC(=O)[C@@H]1CCCCC/C=C\C2CC2(C(=O)O)NC(=O)N2C[C@@H](OC(=O)N3CCc4ccccc4C3)C[C@@H]2C(=O)N1)C1CCCCC1 (some centres unmarked) [Compound 40],EC50,[1],≤ 10 µM
CCCC(NC(=O)N1C[C@@H](Oc2cc(-c3ccccc3)nc3cc(OC)ccc23)C[C@H]1C(=O)N[C@H](C(=O)N[C@H](C(=O)OC)C1CCCCC1)C(C)(C)C)C(=O)C(=O)NC1CC1 (some centres unmarked) [Compound 41],EC50,[2],< 10 µM
C=CC1CC1(NC(=O)N1C[C@@H](Oc2cc(-c3ccccc3)nc3cc(OC)ccc23)C[C@H]1C(=O)NC(C(=O)N[C@H](C(=O)NC)C1CCCCC1)C(C)(C)C)C(=O)O (some centres unmarked) [Compound 42],EC50,[2],> 100 µM
CCCC(NC(=O)N1C[C@@H](OC(=O)N2CCc3ccccc3C2)C[C@H]1C(=O)N[C@H](C(=O)OC(C)(C)C)C(C)(C)C)C(=O)C(=O)NC1CC1 (some centres unmarked) [Compound 43],EC50,[2],10 to 100 µM
CCCC(NC(=O)N1C[C@@H](OC(=O)N2CCCCC2)C[C@H]1C(=O)N[C@H](C(=O)OC(C)(C)C)C(C)(C)C)C(=O)C(=O)NC1CC1 (some centres unmarked) [Compound 44],EC50,[2],< 10 µM
C=CC1CC1(NC(=O)N1C[C@@H](OC(=O)N2CCCCC2)C[C@H]1C(=O)N[C@H](C(=O)OC(C)(C)C)C(C)(C)C)C(=O)OCC (some centres unmarked) [Compound 45],EC50,[2],< 10 µM
C=CC1CC1(NC(=O)N1C[C@@H](OC(=O)N2CCCCC2)C[C@H]1C(=O)N[C@H](C(=O)OC(C)(C)C)C(C)(C)C)C(=O)O (some centres unmarked) [Compound 46],EC50,[2],10 to 100 µM
C=CC1CC1(NC(=O)N1C[C@@H](OC(=O)N2CCCCC2)C[C@H]1C(=O)N[C@H](C(=O)OC(C)(C)C)C(C)(C)C)C(=O)NS(=O)(=O)C1CC1 (some centres unmarked) [Compound 47],EC50,[2],< 10 µM
C=CC1CC1(NC(=O)N1C[C@@H](Oc2cc(-c3ccccc3)nc3cc(OC)ccc23)C[C@H]1C(=O)N[C@H](C(=O)N[C@H](C(=O)NC)C1CCCCC1)C(C)(C)C)C(=O)NS(=O)(=O)C1CC1 (some centres unmarked) [Compound 48],EC50,[2],< 10 µM
